Assay results as given in ChEMBL document CHEMBL3526086, “Identification of the oxidative and conjugative enzymes involved in the biotransformation of brivanib” (Drug Metab Dispos, 2012).

Experiments:
Assay type in all cases: ADME
[1] = biological target: Cytochrome P450 1B1 (Homo sapiens, UniProt Q16678); experiment: Drug metabolism assessed as human CYP1B1-mediated (R)-1-(4-(4-fluoro-2-(hydroxymethyl)-1H-indol-5-yloxy)-5-methylpyrrolo[1,2-f][1,2,4]triazin-6-yloxy)propan-2-ol formation at 2 and 20 uM for 20 mins by LC/MS analysis in presence of NADPH; conditions: recombinant enzyme
Chain of Cytochrome P450 1B1 (Q16678 whole entry): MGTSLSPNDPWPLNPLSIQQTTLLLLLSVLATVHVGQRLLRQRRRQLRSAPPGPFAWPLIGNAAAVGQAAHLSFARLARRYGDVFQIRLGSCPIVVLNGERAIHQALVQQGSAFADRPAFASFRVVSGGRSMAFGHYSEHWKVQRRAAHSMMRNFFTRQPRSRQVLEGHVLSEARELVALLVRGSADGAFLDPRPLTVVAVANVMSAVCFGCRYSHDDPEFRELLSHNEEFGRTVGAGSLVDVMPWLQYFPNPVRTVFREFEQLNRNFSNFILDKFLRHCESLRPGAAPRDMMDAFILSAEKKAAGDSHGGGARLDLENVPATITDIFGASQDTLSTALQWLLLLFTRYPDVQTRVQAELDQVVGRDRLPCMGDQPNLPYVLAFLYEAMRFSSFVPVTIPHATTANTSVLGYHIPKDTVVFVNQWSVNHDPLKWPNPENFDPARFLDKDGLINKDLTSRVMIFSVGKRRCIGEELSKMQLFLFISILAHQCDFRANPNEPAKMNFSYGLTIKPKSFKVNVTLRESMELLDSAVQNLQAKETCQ

[2] = biological target: T1, Cytochrome P450 2C9 (Homo sapiens, UniProt P11712); experiment: Drug metabolism in human liver microsomes assessed as monoclonal antibody-mediated inhibition of CYP2C9-mediated (R)-1-(4-(4-fluoro-2-(hydroxymethyl)-1H-indol-5-yloxy)-5-methylpyrrolo[1,2-f][1,2,4]triazin-6-yloxy)propan-2-ol formation at 2 and 20 uM for 30 mins by LC/MS analysis; conditions: 0.5 h
T1 sequence (P11712 whole entry): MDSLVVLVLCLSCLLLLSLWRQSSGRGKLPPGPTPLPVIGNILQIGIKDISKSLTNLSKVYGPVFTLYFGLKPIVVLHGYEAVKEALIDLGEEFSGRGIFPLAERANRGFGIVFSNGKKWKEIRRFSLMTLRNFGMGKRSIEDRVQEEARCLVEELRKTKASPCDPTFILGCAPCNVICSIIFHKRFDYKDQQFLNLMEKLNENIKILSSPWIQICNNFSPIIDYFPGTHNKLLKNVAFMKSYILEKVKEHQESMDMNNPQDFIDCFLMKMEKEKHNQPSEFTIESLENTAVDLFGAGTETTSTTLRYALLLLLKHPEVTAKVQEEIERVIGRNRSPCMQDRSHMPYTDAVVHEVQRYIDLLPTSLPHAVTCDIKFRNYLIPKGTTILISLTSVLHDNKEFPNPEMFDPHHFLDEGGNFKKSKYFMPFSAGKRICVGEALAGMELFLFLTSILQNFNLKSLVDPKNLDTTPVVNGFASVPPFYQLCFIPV

[3] = Activity of CYP3A4/CYP1A2 in human liver microsomes assessed as intrinsic clearance for enzyme-mediated (R)-1-(4-(4-fluoro-2-(hydroxymethyl)-1H-indol-5-yloxy)-5-methylpyrrolo[1,2-f][1,2,4]triazin-6-yloxy)propan-2-ol formation per mg protein in presence of NADPH
[4] = biological target: Cytochrome P450 2C19 (Homo sapiens, UniProt P33261); experiment: Drug metabolism assessed as human CYP2C19-mediated (R)-1-(4-(4-fluoro-2-(hydroxymethyl)-1H-indol-5-yloxy)-5-methylpyrrolo[1,2-f][1,2,4]triazin-6-yloxy)propan-2-ol formation at 2 and 20 uM for 20 mins by LC/MS analysis in presence of NADPH; conditions: recombinant enzyme
Chain of Cytochrome P450 2C19 (P33261 whole entry): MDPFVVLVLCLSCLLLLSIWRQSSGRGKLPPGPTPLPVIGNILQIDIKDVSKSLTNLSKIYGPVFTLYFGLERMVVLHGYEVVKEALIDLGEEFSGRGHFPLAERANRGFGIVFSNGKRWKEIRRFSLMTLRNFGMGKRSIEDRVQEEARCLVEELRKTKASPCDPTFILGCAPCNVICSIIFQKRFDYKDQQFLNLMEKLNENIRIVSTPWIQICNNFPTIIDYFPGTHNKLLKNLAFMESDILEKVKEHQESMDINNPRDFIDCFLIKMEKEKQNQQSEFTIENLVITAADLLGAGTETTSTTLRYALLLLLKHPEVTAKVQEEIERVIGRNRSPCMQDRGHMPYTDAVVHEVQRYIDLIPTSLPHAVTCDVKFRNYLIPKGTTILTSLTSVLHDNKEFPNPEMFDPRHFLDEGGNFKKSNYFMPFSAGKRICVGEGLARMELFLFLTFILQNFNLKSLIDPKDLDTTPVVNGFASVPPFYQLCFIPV

[5] = biological target: Cytochrome P450 2E1 (Homo sapiens, UniProt P05181); experiment: Drug metabolism in human liver microsomes assessed as 50 uM diethyldithiocarbamate-mediated inhibition of CYP2E1-mediated (R)-1-(4-(4-fluoro-2-(hydroxymethyl)-1H-indol-5-yloxy)-5-methylpyrrolo[1,2-f][1,2,4]triazin-6-yloxy)propan-2-ol formation at 2 and 20 uM for 30 mins by LC/MS analysis; conditions: 0.5 h
Chain of Cytochrome P450 2E1 (P05181 whole entry): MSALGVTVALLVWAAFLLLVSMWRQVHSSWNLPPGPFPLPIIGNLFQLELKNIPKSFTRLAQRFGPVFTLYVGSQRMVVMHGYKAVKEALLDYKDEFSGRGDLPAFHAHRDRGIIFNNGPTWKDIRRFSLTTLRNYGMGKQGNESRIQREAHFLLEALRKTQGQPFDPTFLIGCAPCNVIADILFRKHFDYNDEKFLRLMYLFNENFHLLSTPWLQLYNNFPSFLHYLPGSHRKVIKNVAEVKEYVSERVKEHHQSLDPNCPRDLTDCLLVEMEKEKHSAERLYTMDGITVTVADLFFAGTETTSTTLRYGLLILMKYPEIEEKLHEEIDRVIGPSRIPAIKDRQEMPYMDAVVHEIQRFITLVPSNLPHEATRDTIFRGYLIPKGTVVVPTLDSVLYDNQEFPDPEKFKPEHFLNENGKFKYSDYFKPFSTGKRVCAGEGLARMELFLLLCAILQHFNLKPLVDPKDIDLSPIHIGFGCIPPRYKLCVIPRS

[6] = biological target: Sulfotransferase 2A1 (Homo sapiens, UniProt Q06520); experiment: Drug metabolism assessed as human SULT2A1-mediated (R)-1-(4-(4-fluoro-2-methyl-1H-indol-5-yloxy)-5-methylpyrrolo[1,2-f][1,2,4]triazin-6-yloxy)propane-2-sulfonic acid formation at 2 and 20 uM for 30 mins by LC/MS analysis in presence of PAPS; conditions: 0.5 h
Chain of Sulfotransferase 2A1 (Q06520 whole entry): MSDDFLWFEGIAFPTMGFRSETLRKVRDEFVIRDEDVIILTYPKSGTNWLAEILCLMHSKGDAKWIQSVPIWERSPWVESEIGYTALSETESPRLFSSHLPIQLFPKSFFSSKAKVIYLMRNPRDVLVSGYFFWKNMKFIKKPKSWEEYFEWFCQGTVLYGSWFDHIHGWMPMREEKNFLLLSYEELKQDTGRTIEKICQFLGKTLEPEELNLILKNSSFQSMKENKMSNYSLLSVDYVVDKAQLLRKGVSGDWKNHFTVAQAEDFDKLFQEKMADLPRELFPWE

[7] = biological target: T2, Cytochrome P450 2D6 (Homo sapiens, UniProt P10635); experiment: Drug metabolism in human liver microsomes assessed as monoclonal antibody-mediated inhibition of CYP2D6-mediated(R)-1-(4-(4-fluoro-2-(hydroxymethyl)-1H-indol-5-yloxy)-5-methylpyrrolo[1,2-f][1,2,4]triazin-6-yloxy)propan-2-ol formation at 2 and 20 uM for 30 mins by LC/MS analysis; conditions: 0.5 h
T2 sequence (P10635 whole entry): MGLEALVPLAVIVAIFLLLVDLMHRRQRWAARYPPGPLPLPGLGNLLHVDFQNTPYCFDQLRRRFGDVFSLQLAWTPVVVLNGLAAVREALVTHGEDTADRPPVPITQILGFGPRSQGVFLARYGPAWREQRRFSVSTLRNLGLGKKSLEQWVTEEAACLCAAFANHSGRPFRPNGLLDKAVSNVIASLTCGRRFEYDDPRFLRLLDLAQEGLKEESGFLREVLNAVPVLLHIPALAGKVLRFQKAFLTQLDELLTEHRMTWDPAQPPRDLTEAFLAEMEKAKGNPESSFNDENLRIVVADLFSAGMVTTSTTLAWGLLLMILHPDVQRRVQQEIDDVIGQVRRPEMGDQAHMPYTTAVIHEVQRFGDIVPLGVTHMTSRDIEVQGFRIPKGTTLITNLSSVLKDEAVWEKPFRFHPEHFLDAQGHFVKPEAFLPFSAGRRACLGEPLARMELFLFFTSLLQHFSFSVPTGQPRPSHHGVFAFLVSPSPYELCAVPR

[8] = biological target: T2, Cytochrome P450 2D6; experiment: Drug metabolism assessed as human CYP2D6-mediated (R)-1-(4-(4-fluoro-2-(hydroxymethyl)-1H-indol-5-yloxy)-5-methylpyrrolo[1,2-f][1,2,4]triazin-6-yloxy)propan-2-ol formation at 2 and 20 uM for 20 mins by LC/MS analysis in presence of NADPH; conditions: recombinant enzyme
[9] = system: Liver microsome; experiment: Drug level in human liver microsomes assessed as compound formation treated with 2 uM [14C]brivanib alaninate for 60 mins by LC/MS analysis in presence of NADPH; conditions: 1 h
[10] = Activity of CYP3A4/CYP1A2 in human liver microsomes assessed as enzyme-mediated (R)-1-(4-(4-fluoro-2-(hydroxymethyl)-1H-indol-5-yloxy)-5-methylpyrrolo[1,2-f][1,2,4]triazin-6-yloxy)propan-2-ol formation in presence of NADPH
[11] = biological target: T1, Cytochrome P450 2C9; experiment: Drug metabolism assessed as human CYP2C9-mediated (R)-1-(4-(4-fluoro-2-(hydroxymethyl)-1H-indol-5-yloxy)-5-methylpyrrolo[1,2-f][1,2,4]triazin-6-yloxy)propan-2-ol formation at 2 and 20 uM for 20 mins by LC/MS analysis in presence of NADPH; conditions: recombinant enzyme
[12] = system: Liver microsome; experiment: Drug metabolism in human liver microsomes assessed as (R)-1-(4-(4-fluoro-2-(hydroxymethyl)-1H-indol-5-yloxy)-5-methylpyrrolo[1,2-f][1,2,4]triazin-6-yloxy)propan-2-ol formation at 2 and 20 uM for 30 mins by LC/MS analysis in presence of antibody for CYP3A4/5; conditions: 0.5 h
[13] = system: Liver microsome; experiment: Drug metabolism in human liver microsomes assessed as (R)-1-(4-(4-fluoro-2-(hydroxymethyl)-1H-indol-5-yloxy)-5-methylpyrrolo[1,2-f][1,2,4]triazin-6-yloxy)propan-2-ol formation at 2 and 20 uM for 30 mins by LC/MS analysis in presence of antibody for CYP1A2; conditions: 0.5 h
[14] = biological target: T3, Cytochrome P450 2B6 (Homo sapiens, UniProt P20813); experiment: Drug metabolism assessed as human CYP2B6-mediated (R)-1-(4-(4-fluoro-2-(hydroxymethyl)-1H-indol-5-yloxy)-5-methylpyrrolo[1,2-f][1,2,4]triazin-6-yloxy)propan-2-ol formation at 2 and 20 uM for 20 mins by LC/MS analysis in presence of NADPH; conditions: recombinant enzyme
T3 sequence (P20813 whole entry): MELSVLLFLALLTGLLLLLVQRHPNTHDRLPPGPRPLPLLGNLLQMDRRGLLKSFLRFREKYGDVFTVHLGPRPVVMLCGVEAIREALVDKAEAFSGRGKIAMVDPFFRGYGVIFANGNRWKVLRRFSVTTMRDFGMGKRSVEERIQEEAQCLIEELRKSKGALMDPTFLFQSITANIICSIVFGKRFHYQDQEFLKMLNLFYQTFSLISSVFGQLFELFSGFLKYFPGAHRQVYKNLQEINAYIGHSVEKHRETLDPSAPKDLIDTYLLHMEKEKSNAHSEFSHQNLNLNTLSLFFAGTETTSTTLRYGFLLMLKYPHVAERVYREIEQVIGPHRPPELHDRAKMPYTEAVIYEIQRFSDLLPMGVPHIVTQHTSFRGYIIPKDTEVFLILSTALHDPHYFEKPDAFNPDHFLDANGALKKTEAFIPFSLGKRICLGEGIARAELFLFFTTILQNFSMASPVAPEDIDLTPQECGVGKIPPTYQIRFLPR

[15] = system: Liver microsome; experiment: Drug level in human liver microsomes assessed as compound formation treated with 2 uM [14C]brivanib alaninate for 60 mins by LC/MS analysis; conditions: 1 h
[16] = biological target: Sulfotransferase 1A3 (Homo sapiens, UniProt P0DMM9); experiment: Drug metabolism assessed as human SULT1A3-mediated (R)-1-(4-(4-fluoro-2-methyl-1H-indol-5-yloxy)-5-methylpyrrolo[1,2-f][1,2,4]triazin-6-yloxy)propane-2-sulfonic acid formation at 2 and 20 uM for 30 mins by LC/MS analysis in presence of PAPS; conditions: 0.5 h
Chain of Sulfotransferase 1A3 (P0DMM9 whole entry): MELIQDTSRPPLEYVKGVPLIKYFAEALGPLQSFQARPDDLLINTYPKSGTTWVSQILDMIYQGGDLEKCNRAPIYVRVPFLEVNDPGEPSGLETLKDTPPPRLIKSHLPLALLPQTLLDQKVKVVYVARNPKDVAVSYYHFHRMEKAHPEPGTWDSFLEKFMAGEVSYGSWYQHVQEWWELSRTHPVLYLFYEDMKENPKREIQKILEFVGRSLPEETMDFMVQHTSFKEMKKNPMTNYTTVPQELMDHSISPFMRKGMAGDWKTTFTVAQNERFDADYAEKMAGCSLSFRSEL

Drug metabolism [1]: metabolite_detected
Drug metabolism [2]: metabolite_detected
CLint [3]: 3.1 µL/min/mg
Drug metabolism [4]: metabolite_detected
Drug metabolism [5]: metabolite_detected
Drug metabolism [6]: metabolite_detected
Drug metabolism [7]: metabolite_detected
Drug metabolism [8]: metabolite_detected
Drug metabolism [9]: metabolite_detected
Km [10]: 29.1 µM
Drug metabolism [11]: metabolite_detected
Drug metabolism [12]: metabolite_not_detected
Drug metabolism [13]: metabolite_not_detected
Drug metabolism [14]: metabolite_detected
Drug metabolism [15]: metabolite_detected
Drug metabolism [16]: metabolite_detected
Compound: Cc1cc2c(F)c(Oc3ncnn4cc(OC[C@@H](C)O)c(C)c34)ccc2[nH]1 [BRIVANIB]
